In patent publication US12415797B2, “Heterocyclic compound as CDK-HDAC double-channel inhibitor” (Hangzhou Innogate Pharma Co., Ltd., priority 2018, dated 2025):
Where two headings read alike, the source gives them in different places.

What was measured:
Type in all cases: biochemical
[1] = target: HDAC-1 (Homo sapiens (Human), UniProt Q13547); experiment: HDAC-1 fluorogenic deacetylase assay (Ac-peptide-AMC); conditions: recombinant, full-length protein, Ac-peptide-AMC substrate; read-out: HDAC1 (IC50)
Protocol: (§1) The inhibitory effect of compounds on HDAC-1 and HDAC-6 function was determined in vitro using an optimized homogenous assay performed in 384-well plate format. In this assay, the recombinant, full-length HDAC-1, HDAC-2 or HDAC-6 protein (BPS Biosciences) was incubated with Ac-peptide-AMC with concentrations in the Km plot. Reactions were performed in Tris-based assay buffer and were followed for fluorogenic release of 7-amino-4-methylcoumarin from substrate upon deacetylase and trypsin enzymatic activity. Fluorescence measurements were obtained using a multilabel plate reader (Synergy MX with excitation at 355 nm and emission at 460 nm). Data were analyzed on a plate-by-plate basis for the linear range of fluorescence over time. Fit the data in GraphPad Prism V5.0 software to obtain IC50 values using equation (Y=Bottom+(Top-Bottom)/(1+10^((Log IC50−X)*Hill Slope), Y is % inhibition and X is compound concentration).

[2] = target: CDK2/CycA2 (Homo sapiens (Human), UniProt P24941); experiment: CDK2/CycA2 kinase Mobility Shift Assay; conditions: CDK2/CycA2 12 nM, ATP Km 39 μM, 60 min, 28° C.
Protocol: (§2) In vitro enzymatic activity of the CDK isoforms CDK2/CycA2, CDK4/CycD3 and CDK6/cycD3 were measured using Mobility Shift Assay that monitors phosphorylation ratio of FAM labelled peptide (Peptide 18 for CDK2/CycA2, Peptide 8 for CDK4/CycD3). CDK2/CycA2 and CDK6/CycD3 were assayed under buffer conditions in the presence of 50 mM HEPES (pH 7.5), 10 mM MgCl2, 0.0015% Brij-35 and 2 mM dithiothreitol; CDK4/CycD3 with buffer condition of 20 mM HEPES (pH 7.5), 10 mM MgCl2, 0.01% Triton X-100 and 2 mM dithiothreitol. Prepare compounds to 50× of the final desired highest inhibitor concentration by 100% DMSO and serial dilution in 3-fold for total of 10 concentrations. For each isoform, dosage of enzyme and substrate are CDK2/CycA2 12 nM, ATP Km 39 μM; CDK4/CycD3 10 nM, ATP Km […]; CDK6/cycD3 15 nM, ATP Km 800 μM. After assay for 60 min, 180 min, 60 min respectively at 28° C., reactions were terminated with stop solution (50 mM EDTA, 0.015% Brij-35, 0.2% Coating Reagent #3 and 100 mM HEPES (pH 7.5)). Collect conversion on Caliper EZ Reader. IC50 values were calculated by fitting the dose-response curves with Xlfit excel add-in version 4.3.1.

[3] = target: CDK6/cycD3 (Homo sapiens (Human), UniProt Q00534); experiment: CDK6/cycD3 kinase Mobility Shift Assay; conditions: CDK6/cycD3 15 nM, ATP Km 800 μM, 60 min, 28° C.
Protocol: as §2

[4] = target: HDAC-6 (Homo sapiens (Human), UniProt Q9UBN7); experiment: HDAC-6 fluorogenic deacetylase assay (Ac-peptide-AMC); conditions: read-out: HDAC6 (IC5)
Protocol: as §1

[5] = target: CDK4/CycD3 (Homo sapiens (Human), UniProt P11802); experiment: CDK4/CycD3 kinase Mobility Shift Assay; conditions: CDK4/CycD3 10 nM, ATP Km 221 μM, 180 min, 28° C.
Protocol: as §2

[6] = recombinant, full-length protein, Ac-peptide-AMC substrate

Sequence of CDK6/cycD3 (Q00534 whole entry, species assumed): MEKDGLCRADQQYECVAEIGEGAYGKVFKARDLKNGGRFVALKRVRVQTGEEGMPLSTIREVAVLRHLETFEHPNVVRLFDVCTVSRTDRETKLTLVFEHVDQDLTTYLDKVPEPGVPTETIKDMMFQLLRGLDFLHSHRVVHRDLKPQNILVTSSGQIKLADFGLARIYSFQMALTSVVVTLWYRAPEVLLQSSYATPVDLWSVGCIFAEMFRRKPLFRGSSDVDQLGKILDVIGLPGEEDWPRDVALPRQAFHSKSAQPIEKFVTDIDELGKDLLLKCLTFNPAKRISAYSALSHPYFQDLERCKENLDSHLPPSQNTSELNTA
Sequence of CDK6/cycD3 (P30281 whole entry partner, species assumed): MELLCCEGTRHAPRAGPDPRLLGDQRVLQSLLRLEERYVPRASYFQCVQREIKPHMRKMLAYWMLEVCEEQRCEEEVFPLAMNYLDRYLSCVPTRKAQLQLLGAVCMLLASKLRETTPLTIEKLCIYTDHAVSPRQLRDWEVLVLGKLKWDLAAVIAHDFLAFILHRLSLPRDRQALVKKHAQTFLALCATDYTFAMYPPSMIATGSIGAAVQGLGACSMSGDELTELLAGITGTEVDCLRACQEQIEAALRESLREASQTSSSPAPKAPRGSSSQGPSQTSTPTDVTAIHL
Sequence of CDK4/CycD3 (P11802 whole entry, species assumed): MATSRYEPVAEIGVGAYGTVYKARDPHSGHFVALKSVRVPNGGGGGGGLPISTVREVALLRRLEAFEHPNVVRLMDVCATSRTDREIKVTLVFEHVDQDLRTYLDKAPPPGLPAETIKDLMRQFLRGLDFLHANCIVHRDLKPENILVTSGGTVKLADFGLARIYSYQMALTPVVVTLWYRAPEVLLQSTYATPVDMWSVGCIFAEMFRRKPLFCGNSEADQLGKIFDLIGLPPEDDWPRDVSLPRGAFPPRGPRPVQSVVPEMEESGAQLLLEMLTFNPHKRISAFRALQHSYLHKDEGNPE
Sequence of CDK4/CycD3 (P30281 whole entry partner, species assumed): as the sequence (P30281 whole entry partner, species assumed) above
Sequence of HDAC-1 (Q13547 whole entry): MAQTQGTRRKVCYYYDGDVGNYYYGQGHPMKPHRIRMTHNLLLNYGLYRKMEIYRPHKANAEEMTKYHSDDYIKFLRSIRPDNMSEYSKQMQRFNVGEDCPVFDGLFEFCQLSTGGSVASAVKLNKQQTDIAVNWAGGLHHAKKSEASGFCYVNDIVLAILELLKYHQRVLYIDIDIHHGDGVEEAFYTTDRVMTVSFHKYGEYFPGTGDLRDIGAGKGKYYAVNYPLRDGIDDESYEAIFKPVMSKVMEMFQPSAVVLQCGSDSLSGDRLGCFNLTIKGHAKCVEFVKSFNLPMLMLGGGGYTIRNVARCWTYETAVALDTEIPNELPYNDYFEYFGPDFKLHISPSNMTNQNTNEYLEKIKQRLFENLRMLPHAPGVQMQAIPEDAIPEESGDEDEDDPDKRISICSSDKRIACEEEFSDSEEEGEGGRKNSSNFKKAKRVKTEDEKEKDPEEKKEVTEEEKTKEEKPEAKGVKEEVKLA
Sequence of HDAC-6 (Q9UBN7 whole entry): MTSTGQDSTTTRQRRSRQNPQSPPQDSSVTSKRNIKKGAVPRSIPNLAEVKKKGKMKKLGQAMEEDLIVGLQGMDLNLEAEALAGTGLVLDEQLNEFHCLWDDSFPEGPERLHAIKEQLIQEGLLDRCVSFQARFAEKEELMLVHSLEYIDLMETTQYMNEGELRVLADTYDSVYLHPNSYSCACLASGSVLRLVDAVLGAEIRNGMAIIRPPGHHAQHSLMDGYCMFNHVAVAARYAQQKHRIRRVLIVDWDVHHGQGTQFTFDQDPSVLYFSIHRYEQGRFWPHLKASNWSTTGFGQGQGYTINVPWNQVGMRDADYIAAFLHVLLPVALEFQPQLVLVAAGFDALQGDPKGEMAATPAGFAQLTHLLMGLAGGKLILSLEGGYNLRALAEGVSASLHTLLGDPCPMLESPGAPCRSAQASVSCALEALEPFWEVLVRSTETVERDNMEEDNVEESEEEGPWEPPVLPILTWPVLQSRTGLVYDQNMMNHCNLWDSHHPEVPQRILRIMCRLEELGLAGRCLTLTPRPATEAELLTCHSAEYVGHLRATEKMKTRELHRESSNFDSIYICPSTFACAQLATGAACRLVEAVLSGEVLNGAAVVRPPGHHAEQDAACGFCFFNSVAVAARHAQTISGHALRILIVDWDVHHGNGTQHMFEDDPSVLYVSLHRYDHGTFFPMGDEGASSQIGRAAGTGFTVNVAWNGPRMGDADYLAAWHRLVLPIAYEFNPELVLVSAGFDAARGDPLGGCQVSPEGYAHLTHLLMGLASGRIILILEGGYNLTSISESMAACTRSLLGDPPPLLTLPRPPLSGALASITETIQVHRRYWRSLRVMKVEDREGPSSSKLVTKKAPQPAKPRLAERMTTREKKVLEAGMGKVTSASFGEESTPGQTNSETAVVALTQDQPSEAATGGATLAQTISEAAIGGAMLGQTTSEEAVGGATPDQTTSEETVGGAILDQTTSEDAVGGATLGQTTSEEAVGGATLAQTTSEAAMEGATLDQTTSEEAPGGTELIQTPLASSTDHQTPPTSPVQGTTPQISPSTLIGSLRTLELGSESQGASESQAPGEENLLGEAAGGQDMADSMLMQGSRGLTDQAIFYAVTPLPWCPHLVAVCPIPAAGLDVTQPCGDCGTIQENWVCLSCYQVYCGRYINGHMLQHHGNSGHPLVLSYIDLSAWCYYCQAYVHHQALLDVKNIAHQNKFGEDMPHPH

Row | SMILES | IC50 [1] [nM] | IC50 [2] [nM] | IC50 [3] [nM] | IC50 [4, 6] [nM] | IC50 [5] [nM] | IC50 [4] [nM]
1 | Cc1nc2c(F)cc(-c3nc(Nc4ccc(CN5CCN(CCCCCCC(=O)NO)CC5)cn4)ncc3F)cc2n1C(C)C [Compound 1, 7-(4-((6-((5-fluoro-4-(4-fluoro-1-isopropyl-2-methyl-1H-benzo[d]imidazol-6-yl)pyrimidin-2-yl)amino)pyridin-3-yl)methyl)piperazin-1-yl)-N-hydroxyheptanamide] | 100 to 500 | 10 to 100 | 10 to 100 | 10 to 100 | < 10 | 
2 | Cc1nc2c(F)cc(-c3nc(Nc4ccc(N(C)CCCCCCC(=O)NO)cn4)ncc3F)cc2n1C(C)C [Compound 3, 7-((6-((5-fluoro-4-(4-fluoro-1-isopropyl-2-methyl-1H-benzo[d]imidazol-6-yl)pyrimidin-2-yl)amino)pyridin-3-yl)(methyl)amino)-N-hydroxyheptanamide] | 10 to 100 | 10 to 100 | 10 to 100 | 10 to 100 | < 10 | 
3 | Cc1nc2c(F)cc(-c3nc(Nc4ccc(C(=O)NO)cn4)ncc3F)cc2n1C(C)C [Compound 4, 6-((5-fluoro-4-(4-fluoro-1-isopropyl-2-methyl-1H-benzo[d]imidazol-6-yl)pyrimidin-2-yl)amino)-N-hydroxynicotinamide] | 100 to 500 | 100 to 500 | 100 to 500 |  | < 10 | < 10
4 | Cc1nc2c(F)cc(-c3nc(Nc4ccc(N5CCN(C(=O)CCCCCCC(=O)NO)CC5)cn4)ncc3F)cc2n1C(C)C [Compound 10, 8-(4-(6-((5-fluoro-4-(4-fluoro-1-isopropyl-2-methyl-1H-benzo[d]imidazol-6-yl)pyrimidin-2-yl)amino)pyridin-3-yl)piperazin-1-yl)-N-hydroxy-8-oxooctanamide] | 100 to 500 | 10 to 100 | < 10 |  | < 10 | < 10
5 | Cc1nc2c(F)cc(-c3nc(Nc4ccc(C(=O)NO)nc4)ncc3F)cc2n1C(C)C [Compound 11, 5-((5-fluoro-4-(4-fluoro-1-isopropyl-2-methyl-1H-benzo[d]imidazol-6-yl)pyrimidin-2-yl)amino)-N-hydroxypicolinamide] | ≥ 1000 | < 10 | 10 to 100 | ≥ 1000 | < 10 | 
6 | Cc1nc2c(F)cc(-c3nc(Nc4ccc(N5CCN(CCCCC(=O)NO)CC5)cn4)ncc3F)cc2n1C(C)C [Compound 13, 5-(4-(6-((5-fluoro-4-(4-fluoro-1-isopropyl-2-methyl-1H-benzo[d]imidazol-6-yl)pyrimidin-2-yl)amino)pyridin-3-yl)piperazin-1-yl)-N-hydroxypentanamide] | ≥ 1000 | 10 to 100 | < 10 | 10 to 100 | < 10 | 
7 | Cc1nc2c(F)cc(-c3nc(Nc4ccc(C#CC(=O)NO)cn4)ncc3F)cc2n1C(C)C [Compound 17, 3-(6-((5-fluoro-4-(4-fluoro-1-isopropyl-2-methyl-1H-benzo[d]imidazol-6-yl)pyrimidin-2-yl)amino)pyridin-3-yl)-N-hydroxypropiolamide] |  |  |  |  | < 10 | 

The remaining lines, values ahead:

Row | IC50 [1] [nM] | IC50 [2] [nM] | IC50 [3] [nM] | IC50 [4, 6] [nM] | IC50 [5] [nM] | IC50 [4] [nM] | SMILES
8 | < 10 | 100 to 500 | 10 to 100 | 10 to 100 | < 10 |  | Cc1nc2c(F)cc(-c3nc(Nc4ccc(N(C)CCN(C)c5ncc(C(=O)NO)cn5)cn4)ncc3F)cc2n1C(C)C [Compound 2, 2-((2-((6-((5-fluoro-4-(4-fluoro-1-isopropyl-2-methyl-1H-benzo[d]imidazol-6-yl)pyrimidin-2-yl)amino)pyridin-3-yl)(methyl)amino)ethyl)(methyl)amino)-N-hydroxypyrimidine-5-carboxamide]
9 | ≥ 1000 | 10 to 100 | 100 to 500 | 10 to 100 | < 10 |  | Cc1nc2c(F)cc(-c3nc(Nc4ccc(/C=C/C(=O)NO)cn4)ncc3F)cc2n1C(C)C [Compound 5, (E)-3-(6-((5-fluoro-4-(4-fluoro-1-isopropyl-2-methyl-1H-benzo[d]imidazol-6-yl)pyrimidin-2-yl)amino)pyridin-3-yl)-N-hydroxyacrylamide]
10 | 100 to 500 | < 10 | 10 to 100 | 10 to 100 | < 10 |  | Cc1nc2c(F)cc(-c3nc(Nc4ccc(N(C)Cc5ccc(C(=O)NO)cc5)cn4)ncc3F)cc2n1C(C)C [Compound 6, 4-(((6-((5-fluoro-4-(4-fluoro-1-isopropyl-2-methyl-1H-benzo[d]imidazol-6-yl)pyrimidin-2-yl)amino)pyridin-3-yl)(methyl)amino)methyl)-N-hydroxybenzamide]
11 | 100 to 500 | 100 to 500 | 500 to 1000 | 10 to 100 | 10 to 100 |  | Cc1nc2c(F)cc(-c3nc(Nc4ccc(N(C)Cc5ccc(/C=C/C(=O)NO)cc5)cn4)ncc3F)cc2n1C(C)C [Compound 7, (E)-3-(4-(((6-((5-fluoro-4-(4-fluoro-1-isopropyl-2-methyl-1H-benzo[d]imidazol-6-yl)pyrimidin-2-yl)amino)pyridin-3-yl)(methyl)amino)methyl)phenyl)-N-hydroxyacrylamide]
12 | 10 to 100 | 10 to 100 | 10 to 100 |  | < 10 | < 10 | Cc1nc2c(F)cc(-c3nc(Nc4ccc(N5CCN(Cc6ccc(C(=O)NO)cc6)CC5)cn4)ncc3F)cc2n1C(C)C [Compound 8, 4-((4-(6-((5-fluoro-4-(4-fluoro-1-isopropyl-2-methyl-1H-benzo[d]imidazol-6-yl)pyrimidin-2-yl)amino)pyridin-3-yl)piperazin-1-yl)methyl)-N-hydroxybenzamide]
13 | ≥ 1000 | 10 to 100 | 10 to 100 |  | < 10 | < 10 | Cc1nc2c(F)cc(-c3nc(Nc4ccc(N5CCN(CCCCCCC(=O)NO)CC5)cn4)ncc3F)cc2n1C(C)C [Compound 9, 7-(4-(6-((5-fluoro-4-(4-fluoro-1-isopropyl-2-methyl-1H-benzo[d]imidazol-6-yl)pyrimidin-2-yl)amino)pyridin-3-yl)piperazin-1-yl)-N-hydroxyheptanamide]
14 | 100 to 500 | 10 to 100 | ≥ 1000 | 10 to 100 | 10 to 100 |  | Cc1nc2c(F)cc(-c3nc(Nc4cc(C(=O)NO)ccn4)ncc3F)cc2n1C(C)C [Compound 12, 2-((5-fluoro-4-(4-fluoro-1-isopropyl-2-methyl-1H-benzo[d]imidazol-6-yl)pyrimidin-2-yl)amino)-N-hydroxyisonicotinamide]
15 | ≥ 1000 | 10 to 100 | 10 to 100 | 500 to 1000 | < 10 |  | Cc1nc2c(F)cc(-c3nc(Nc4ccc(N5CCN(CCC(=O)NO)CC5)cn4)ncc3F)cc2n1C(C)C [Compound 14, 3-(4-(6-((5-fluoro-4-(4-fluoro-1-isopropyl-2-methyl-1H-benzo[d]imidazol-6-yl)pyrimidin-2-yl)amino)pyridin-3-yl)piperazin-1-yl)-N-hydroxypropanamide]
16 | ≥ 1000 | 10 to 100 | 10 to 100 | 100 to 500 | < 10 |  | Cc1nc2c(F)cc(-c3nc(Nc4ccc(N5CCC(C(=O)NO)CC5)cn4)ncc3F)cc2n1C(C)C [Compound 15, 1-(6-((5-fluoro-4-(4-fluoro-1-isopropyl-2-methyl-1H-benzo[d]imidazol-6-yl)pyrimidin-2-yl)amino)pyridin-3-yl)-N-hydroxypiperidine-4-carboxamide]
17 | ≥ 1000 | < 10 | 10 to 100 | 100 to 500 | < 10 |  | Cc1nc2c(F)cc(-c3nc(Nc4ccc(-c5ccc(C(=O)NO)cn5)cn4)ncc3F)cc2n1C(C)C [Compound 16, 6′-((5-fluoro-4-(4-fluoro-1-isopropyl-2-methyl-1H-benzo[d]imidazol-6-yl)pyrimidin-2-yl)amino)-N-hydroxy-[2,3′-bipyridine]-5-carboxamide]
